This note sets out measurements from patent EP0530994A1, “Quinazoline derivatives as inhibitors of HIV reverse transcriptase” (MERCK & CO. INC., priority 1991, dated 1993).

The target in this assay is T1, recombinant HIV reverse transcriptase (HIV RTR) (Human immunodeficiency virus type 1 group M subtype B, UniProt P03366).
T1 construct: recombinant HIV reverse transcriptase (HIV RTR)
The assay can be described thus: Reverse transcriptase assay (incorporation of tritiated deoxyguanosine monophosphate into acid-precipitable cDNA). The assay is classed as biochemical. The following applies: [³H] dGTP and poly r(C)·oligo d(G)12-18 each at about Km; 37°C for 45 minutes; read-out: IC₅₀ value. As for the experimental part: The assay measures the incorporation of tritiated deoxyguanosine monophosphate by recombinant HIV reverse transcriptase (HIV RTR) (or other RT) into acid-precipitable cDNA at the Km values of dGTP and poly r(C)·oligo d(G)₁₂₋₁₈.
Thirty µL of a reaction mixture containing equal volumes of: 500 mM Tris·HCl (pH 8.2), 300 mM MgCl₂, 1200 mM KCl, 10 mM DTT, 400 µg/mL poly r(c)·oligo d(G) [prepared by dissolving 1.5 mg (25 U) poly r(C)·oligo d(G) in 1.5 ml sterile distilled H₂O and diluting to 400 µg/ml], 0.1 µCi/µl [³H] dGTP, 160 µM dGTP, was added to 10 µl sterile distilled H₂O, 2.5 µl of potential inhibitor and 10 µL of 5 nM purified HIV RTR in tubes. The mixture was incubated at 37°C for 45 minutes.
After incubation is complete, the tubes were cooled in ice for 5 minutes. Ice-cold 13% TCA containing 10 mM NaPPi (200 µl) is added and the mixture incubated on ice for 30 minutes. The precipitated cDNA is removed by filtration using presoaked glass filters [TCA, NaPPi]. […]
The filter discs are then counted in a scintillation counter.
Under these conditions [dGTP] and poly r(C)·oligo d(G)₁₂₋₁₈ each are approximately equal to the appropriate Km value. […] Calculated IC₅₀ values for the tested compounds of this invention vary from about 12 nM to more than 300 µM, with the most preferred compounds having values of between about 30 nM and about 60 µM. […]

Turning to `C#CC1(c2ccccc2)c2cc(Cl)ccc2NC(=O)N1C` (single isomer, unassigned; (+)) [(+) optical isomer of compound 4, 6-Chloro-3,4-dihydro-3-methyl-4-phenyl-4-ethynyl-2(1H)-quinazolinone], the IC50 was approximately 0.06 nM.
